Test results reported in patent publication US20110269942A1, “ANTIBODIES MODIFIED WITH HYDROPHOBIC MOLECULE” (DAIICHI SANKYO COMPANY, LIMITED, priority 2007, published 2011).

Assays:
[1] = target: human DR5 (death receptor 5) (human) (UniProt O14763); test: cell-based or functional assay
Jurkat cells = test: Apoptosis-inducing activity of hydrophobic molecule-modified antibodies against Jurkat cells (cell viability from ATP level; method of Test Example 13); format: cell-based, human; details: 72 hr
BxPC-3 cells = test: Apoptosis-inducing activity of hydrophobic molecule-modified antibodies against BxPC-3 cells (cell viability from ATP level); format: cell-based, human
[2] = test system: human colon cancer strain COLO 205; test: Antitumor activity against human colon cancer strain COLO 205-transplanted nude mice (tumor volume, rate of tumor growth); format: in vivo, nude mice BALB/cA Jcl-nu; details: 0.33 mg/ml, 0.1 ml per 10 g body weight i.v., Days 8, 11, 13, 15, 18, 20, 22, 25, 27
Experimental: The in-vivo antitumor activity of the immunoliposome prepared in Example 5 was studied. 2×10^6 cells of a human colon cancer strain COLO 205 (purchased from American Type Culture Collection) which was confirmed by quarantine to have no detectable mouse pathogenic microorganisms were hypodermically transplanted to the axillary region of nude mice BALB/cA Jcl-nu (CLEA Japan, Inc.). The immunoliposome of Example 5 was diluted, immediately before its administration, with saline (Otsuka Pharmaceutical Co., Ltd.) to 1 and 0.33 mg/ml in terms of antibody concentrations. Seven days after the transplantation, the administration of the immunoliposome of Example 5 to COLO 205 cancer-bearing mice in which the tumor successfully grafted was started. […]
The major axis and minor axis of the transplanted tumor were measured two to three times a week using an electronic vernier caliper (CD-15C; Mitutoyo Corp.). The tumor volume was determined according to the following calculation formula:
Tumor volume (mm^3)=½×minor axis^2 (mm)×major axis (mm).
Moreover, the rate of tumor growth (mm^3/day) of each individual was calculated, and the statistically significant difference was tested by a Dunnett test using the value. In this context, a P value less than 0.05 was regarded as being a significant difference among groups. […]

[3] = test system: human malignant melanoma cell strain A2058 cells; test: Apoptosis-inducing activity of immunoliposomes against A2058 cells (cell viability from ATP level); format: cell-based; details: antibody not conjugated to an immunoliposome
Experimental: (§1) Jurkat cells were counted by a trypan blue staining method, and the concentration was then adjusted to 1×10^5 cells/ml with a DMEM medium (manufactured by Invitrogen Corp.; hereinafter, referred to as a DMEM medium) containing 10% fetal calf serum (manufactured by Hyclone Laboratories, Inc.). […] To this microplate, the cell suspension was inoculated in an amount of 50 μl (5×10^3 cells)/well. The plate was cultured at 37° C. for 72 hr in the presence of 5% carbon dioxide, and the ATP level of each well was measured. […] Then, the supernatant was transferred in an amount of 100 μl/well to a 96-well white microplate (manufactured by Corning Inc.), and luminescence from each well was measured using a luminometer (manufactured by Molecular Devices Corp.). […] The cell viability of each well was calculated according to the following equation:
(§2) Cell viability (%)=(Luminescence intensity of test wells−Average luminescence intensity of background wells)/(Average luminescence intensity of negative control wells−Average luminescence intensity of background wells)×100.
The apoptosis-inducing activities against human malignant melanoma cell strain A2058 cells were measured according to the method described in Test Example 1.

[4] = test system: human malignant melanoma cell strain A375 cells; test: Apoptosis-inducing activity of immunoliposomes against A375 cells (cell viability from ATP level); format: cell-based; details: antibody not conjugated to an immunoliposome
Experimental: as §1, §2
The apoptosis-inducing activities against human malignant melanoma cell strain A375 cells were measured according to the method described in Test Example 1.

human Fas = target: T1, human Fas (human, UniProt P25445 26-335); test: cell-based or functional assay
T1 sequence (looked up): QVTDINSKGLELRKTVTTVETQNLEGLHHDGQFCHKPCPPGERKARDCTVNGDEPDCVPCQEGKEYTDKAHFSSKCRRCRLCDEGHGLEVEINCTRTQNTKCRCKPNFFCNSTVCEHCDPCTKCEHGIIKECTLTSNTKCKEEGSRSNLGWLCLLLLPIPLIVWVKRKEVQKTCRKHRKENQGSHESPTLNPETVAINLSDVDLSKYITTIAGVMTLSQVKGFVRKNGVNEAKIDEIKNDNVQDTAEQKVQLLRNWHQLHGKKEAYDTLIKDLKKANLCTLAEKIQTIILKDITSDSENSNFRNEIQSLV

## DSPE-PEG2000-modified MAB631 Fullbody of Example 49 (antibody)
[1]
  EC50 (concentration exhibiting 50% cell viability), Jurkat cells, Test Example 20: 0.025 ng/mL
  cell viability (Jurkat cells): < 10%
[1]; scale: fold
  EC50 relative to Ab, Jurkat cells, Test Example 20: 58.4

## Example 32: DSPE-PEG2000-modified hTRA-8 Fab′ (Cys), reaction ratio 1:4
Jurkat cells
  apoptosis-inducing activity compared with that of secondary antibody-cross-linked hTRA-8: stronger

## Example 33: DSPE-PEG2000-modified hTRA-8 Fullbody (Lys), reaction ratio 1:1
Jurkat cells
  apoptosis-inducing activity compared with that of secondary antibody-cross-linked hTRA-8: stronger

## Example 34: DSPE-PEG2000-modified hTRA-8 Fullbody (Lys), reaction ratio 1:4
Jurkat cells
  apoptosis-inducing activity compared with that of secondary antibody-cross-linked hTRA-8: stronger

## Example 35: DSPE-PEG2000-modified hTRA-8 Fullbody (Lys), reaction ratio 1:12
Jurkat cells
  apoptosis-inducing activity compared with that of secondary antibody-cross-linked hTRA-8: stronger

## Example 36: DSPE-PEG2000-modified hTRA-8 Fullbody (Cys), reaction ratio 1:10
Jurkat cells
  apoptosis-inducing activity compared with that of secondary antibody-cross-linked hTRA-8: stronger

## Example 37: DSPE-PEG2000-modified hTRA-8 Fab′ (Cys), reaction ratio 1:1
BxPC-3 cells
  apoptosis-inducing activity compared with that of secondary antibody-cross-linked hTRA-8: stronger
Jurkat cells
  apoptosis-inducing activity compared with that of secondary antibody-cross-linked hTRA-8: equivalent to or stronger

## Example 38: DSPE-PEG10000-modified hTRA-8 Fab′ (Cys)
Jurkat cells
  apoptosis-inducing activity compared with that of secondary antibody-cross-linked hTRA-8: equivalent to or stronger

## Example 39: DPPE-PEG2000-modified hTRA-8 Fab′ (Cys)
Jurkat cells
  apoptosis-inducing activity compared with that of secondary antibody-cross-linked hTRA-8: equivalent to or stronger

## Example 40: Chol-PEG5000-modified hTRA-8 Fab′ (Cys)
Jurkat cells
  apoptosis-inducing activity compared with that of secondary antibody-cross-linked hTRA-8: equivalent to or stronger

## Example 41: DSPE-PEG10000-modified hTRA-8 Fullbody (Lys)
Jurkat cells
  apoptosis-inducing activity compared with that of secondary antibody-cross-linked hTRA-8: stronger

## Example 42: DPPE-PEG2000-modified hTRA-8 Fullbody (Lys)
Jurkat cells
  apoptosis-inducing activity compared with that of secondary antibody-cross-linked hTRA-8: stronger

## Example 43: Chol-PEG5000-modified hTRA-8 Fullbody (Lys)
Jurkat cells
  apoptosis-inducing activity compared with that of secondary antibody-cross-linked hTRA-8: stronger

## Example 45: DSPE-PEG3400-modified hTRA-8 Fullbody (Lys)
Jurkat cells
  apoptosis-inducing activity compared with that of secondary antibody-cross-linked hTRA-8: stronger

## Example 46: DSPE-PEG5000-modified hTRA-8 Fullbody (Lys), reaction ratio 1:2
BxPC-3 cells
  apoptosis-inducing activity compared with that of secondary antibody-cross-linked hTRA-8: stronger
Jurkat cells
  apoptosis-inducing activity compared with that of secondary antibody-cross-linked hTRA-8: stronger

## Example 47: DSPE-PEG2000-modified hTRA-8 Fullbody (Lys), reaction ratio 1:1, large scale
[2]
  antitumor activity (rate of tumor growth, Dunnett test): antitumor activity with a statistically significant difference

## Example 48: DSPE-PEG2000-modified hTRA-8 F(ab′)2 (Lys)
BxPC-3 cells
  apoptosis-inducing activity compared with that of secondary antibody-cross-linked hTRA-8: stronger

## Example 52: PEG2000-modified hTRA-8 Fullbody (Lys), hydrophobic molecule-free, water-soluble linker-modified antibody
BxPC-3 cells; 1000, 100, 10, or 1 ng/ml
  apoptosis-inducing activity (in words): weak

## Example 53: PEG5000-modified hTRA-8 Fullbody (Lys), hydrophobic molecule-free, water-soluble linker-modified antibody
BxPC-3 cells; 1000, 100, 10, or 1 ng/ml
  apoptosis-inducing activity (in words): weak

## Example 54: PEG2000-modified hTRA-8 Fab′ (Cys), hydrophobic molecule-free, water-soluble linker-modified antibody
BxPC-3 cells; 1000, 100, 10, or 1 ng/ml
  apoptosis-inducing activity (in words): weak

## hTRA-8 F(ab′)2 fragment: F(ab′)2 fragment obtained by pepsin digestion of hTRA-8
BxPC-3 cells; 1000, 100, 10, or 1 ng/ml
  apoptosis-inducing activity (in words): hardly exhibited an apoptosis-inducing activity

## hTRA-8 Fab′ fragment: Fab′ obtained by reducing hTRA-8 F(ab′)2 with DTT
BxPC-3 cells; 1000, 100, 10, or 1 ng/ml
  apoptosis-inducing activity (in words): hardly exhibited an apoptosis-inducing activity

## hTRA-8: antibody obtained by humanizing mouse anti-human DR5 antibody TRA-8; heavy chain SEQ ID NO: 1, light chain SEQ ID NO: 2
[3]
  apoptosis-inducing activity (in words): weak
[4]
  apoptosis-inducing activity (in words): weak
BxPC-3 cells; uncross-linked with secondary antibody
  apoptosis-inducing activity (in words): weak

B1: DSPE-PEG2000-modified hHFE7A Fullbody of Example 50 (antibody, human IgG1, kappa, V domains shown)
VH: QVQLVQSGAEVKKPGASVKVSCKASGYTFTSYWMQWVKQAPGQGLEWMGEIDPSDSYTNYNQKFKGKATLTVDTSTSTAYMELSSLRSEDTAVYYCARNRDYSNNWYFDVWGEGTLVTVSS
VL: EIVLTQSPGTLSLSPGERATLSCKASQSVDYDGDSYMNWYQQKPGQAPRLLIYAASNLESGIPDRFSGSGSGTDFTLTISRLEPEDFAVYYCQQSNEDPRTFGQGTKLEIKR
modifications: DSPE-PEG2000 on thiolated Lys (residue and chain not specified)
Human Fas
  EC50 (concentration exhibiting 50% cell viability), Jurkat cells, Test Example 21: 6.94 ng/mL
  EC50 relative to Ab, Jurkat cells, Test Example 21: > 144 fold (control antibody EC50 / modified antibody EC50)

B2: anti-human Fas antibody hHFE7A (humanized HFE7A), Fullbody (antibody, human IgG1, kappa, V domains shown)
VH: B1 VH
VL: B1 VL
Human Fas
  Cross-linked Antibody EC50, Jurkat cells, Test Example 21: > 1000 ng/mL
